We go through six compounds from PubChem BioAssay AID1918954 (Molecular Pharmacology Branch, DTP, NCI, 2023).

This assay concerns MDA-MB-468 complex spheroids with HUVEC/MSC, viability. Kind of assay: Anticancer human tumor MDA-MB-468 cell line growth inhibition.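 As to all read-outs here: spheroids exposed to agents for seven days.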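 As to viability, T/C: 100% = DMSO vehicle control viability.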 The conditions noted are these: for viability, T/C: stronger effect = lower value. The procedure, abridged:
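Complex spheroids of tumor cells with HUVEC and human MSCs, exposed to iadademstat combined with other agents. Each agent tested in half-log steps from near clinical Cmax (else 10 microM top), DMSO ≤0.25%.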

Setting [1] is: curve of first compound, second compound 0.1 µM.
[2] abbreviates: curve of first compound, second compound 0.316 µM.
[3] abbreviates: curve of first compound, second compound 1 µM.
Where [4] appears, read: curve of first compound, second compound 3.16 µM.
Setting [5] is: curve of first compound, second compound 10 µM.
Setting [6] is: second compound 0.1 µM, first compound 0.00949 µM.
[7] abbreviates: second compound 0.1 µM, first compound 0.03 µM.
Where [8] appears, read: second compound 0.1 µM, first compound 0.0949 µM.
[9] abbreviates: second compound 0.1 µM, first compound 0.3 µM.
Where [10] appears, read: second compound 0.316 µM, first compound 0.00949 µM.
[11] abbreviates: second compound 0.316 µM, first compound 0.03 µM.
The mark [12] stands for this setting: second compound 0.316 µM, first compound 0.0949 µM.
[13] abbreviates: second compound 0.316 µM, first compound 0.3 µM.
[14] abbreviates: second compound 1 µM, first compound 0.00949 µM.
Setting [15] is: second compound 1 µM, first compound 0.03 µM.
The mark [16] stands for this setting: second compound 1 µM, first compound 0.0949 µM.
[17] abbreviates: second compound 1 µM, first compound 0.3 µM.
Where [18] appears, read: second compound 3.16 µM, first compound 0.00949 µM.
Setting [19] is: second compound 3.16 µM, first compound 0.03 µM.
Where [20] appears, read: second compound 3.16 µM, first compound 0.0949 µM.
Where [21] appears, read: second compound 3.16 µM, first compound 0.3 µM.
Setting [22] is: second compound 10 µM, first compound 0.00949 µM.
Where [23] appears, read: second compound 10 µM, first compound 0.03 µM.
Setting [24] is: second compound 10 µM, first compound 0.0949 µM.
Setting [25] is: second compound 10 µM, first compound 0.3 µM.

Several values for one entry are separate records, joined by “and”; a condition that tells them apart may be missing. Identical values can stand only once.

As a reminder, the IC50 is the concentration that gives 50% inhibition. The viability, T/C is the result in the treated group divided by that in the control group, in per cent. As for `O=C(C=Cc1cccc(S(=O)(=O)Nc2ccccc2)c1)NO` + NC1CC1c1ccc(-c2cccc(O)c2)cc1, the half-inhibitory concentration (IC50) reads like this: under setting [1], 0.0599 µM; under setting [2], 0.0442 µM; under setting [3], 0.0533 µM; under setting [4], 0.0498 µM; under setting [5], 0.0262 µM. For the same compound, the viability, T/C reads like this: under setting [6], 88.7%; under setting [7], 74.8%; under setting [8], 25.8%; under setting [9], 2.15%; (second compound 0.1 µM, first compound 0.949 µM) 0.17%; (second compound 0.1 µM, first compound 3 µM) 106%. In addition, the viability, T/C under setting [10] was 96.3%; the viability, T/C under setting [11] is 59.3%; the viability, T/C under setting [12] was 23.1%; the viability, T/C under setting [13] is 2.07%; the viability, T/C (second compound 0.316 µM, first compound 0.949 µM) was 0.17%; the viability, T/C (second compound 0.316 µM, first compound 3 µM) is 101%. The viability, T/C was 92.9% under setting [14]; 70.3% under setting [15]; 25.5% under setting [16]; 2.36% under setting [17]; 0.14% (second compound 1 µM, first compound 0.949 µM); 90.9% (second compound 1 µM, first compound 3 µM). Also, the viability, T/C under setting [18] was 83.1%; the viability, T/C under setting [19] is 64.5%; the viability, T/C under setting [20] is 23%; the viability, T/C under setting [21] is 2.23%; the viability, T/C (second compound 3.16 µM, first compound 0.949 µM) was 0.16%; the viability, T/C (second compound 3.16 µM, first compound 3 µM) was 101%. In addition, the viability, T/C reads like this: under setting [22], 67.7%; under setting [23], 47.7%; under setting [24], 17.7%; under setting [25], 1.86%; (second compound 10 µM, first compound 0.949 µM) 0.19%; (second compound 10 µM, first compound 3 µM) 79.1%.

With `CC(C)CC(NC(=O)C(Cc1ccccc1)NC(=O)c1cnccn1)B(O)O` (stereo not given) + NC1CC1c1ccc(-c2cccc(O)c2)cc1, the concentration for half-maximal inhibition (IC50) reads like this: under setting [1], < 0.000316 µM; under setting [2], < 0.000316 µM; under setting [3], < 0.000316 µM; under setting [4], < 0.000316 µM; under setting [5], < 0.000316 µM. Further, the viability, T/C runs as follows: (second compound 0.1 µM, first compound 0.000316 µM) 5.95%; (second compound 0.1 µM, first compound 0.001 µM) 0.09%; (second compound 0.1 µM, first compound 0.00316 µM) 0.06%; (second compound 0.1 µM, first compound 0.01 µM) 0.05%; (second compound 0.1 µM, first compound 0.0316 µM) 0.08%; (second compound 0.1 µM, first compound 0.1 µM) 0.18%. For the same compound, the viability, T/C is 6.43% (second compound 0.316 µM, first compound 0.000316 µM); 0.09% (second compound 0.316 µM, first compound 0.001 µM); 0.05% (second compound 0.316 µM, first compound 0.00316 µM); 0.07% (second compound 0.316 µM, first compound 0.01 µM); 0.08% (second compound 0.316 µM, first compound 0.0316 µM); 0.17% (second compound 0.316 µM, first compound 0.1 µM). Besides, the viability, T/C runs as follows: (second compound 1 µM, first compound 0.000316 µM) 5.88%; (second compound 1 µM, first compound 0.001 µM) 0.08%; (second compound 1 µM, first compound 0.00316 µM) 0.05%; (second compound 1 µM, first compound 0.01 µM) 0.04%; (second compound 1 µM, first compound 0.0316 µM) 0.06%; (second compound 1 µM, first compound 0.1 µM) 0.17%. Besides, the viability, T/C (second compound 3.16 µM, first compound 0.000316 µM) was 5.66%; the viability, T/C (second compound 3.16 µM, first compound 0.001 µM) was 0.06%; the viability, T/C (second compound 3.16 µM, first compound 0.00316 µM) was 0.07%; the viability, T/C (second compound 3.16 µM, first compound 0.01 µM) is 0.04%; the viability, T/C (second compound 3.16 µM, first compound 0.0316 µM) was 0.14%; the viability, T/C (second compound 3.16 µM, first compound 0.1 µM) is 0.15%. For the same compound, the viability, T/C is 3.55% (second compound 10 µM, first compound 0.000316 µM); 0.16% (second compound 10 µM, first compound 0.001 µM); 0.12% (second compound 10 µM, first compound 0.00316 µM); 0.12% (second compound 10 µM, first compound 0.01 µM); 0.14% (second compound 10 µM, first compound 0.0316 µM); 0.2% (second compound 10 µM, first compound 0.1 µM).

Take `CCN(c1cc(-c2ccc(CN3CCOCC3)cc2)cc(C(=O)NCc2c(C)cc(C)[nH]c2=O)c1C)C1CCOCC1`: the viability, T/C by setting is: (compound 0.00949 µM) 81.6% and 96.5%; (compound 0.03 µM) 100% and 76.8%; (compound 0.0949 µM) 118% and 74.4%; (compound 0.3 µM) 92.3% and 50.2%; (compound 0.949 µM) 92.2% and 44%; (compound 3 µM) 75.7% and 24.5%. The IC50 (curve of compound) was > 3 µM and 0.441 µM.

Regarding `Cn1ncnc1C1c2n[nH]c(=O)c3cc(F)cc(c23)NC1c1ccc(F)cc1` (stereo not given), the viability, T/C reads like this: (compound 0.000316 µM) 103% and 96.9%; (compound 0.001 µM) 86.7% and 79.6%; (compound 0.00316 µM) 77.2% and 65.3%; (compound 0.01 µM) 72% and 75%; (compound 0.0316 µM) 61.2% and 64.5%; (compound 0.1 µM) 60.7% and 50.9%. For the same compound, the IC50 (curve of compound) was > 0.1 µM.

On to `CC1(C)CCC(CN2CCN(c3ccc(C(=O)NS(=O)(=O)c4ccc(NCC5CCOCC5)c([N+](=O)[O-])c4)c(Oc4cnc5[nH]ccc5c4)c3)CC2)=C(c2ccc(Cl)cc2)C1`, for which the viability, T/C by setting is: (compound 0.0316 µM) 93.2% and 90.6%; (compound 0.1 µM) 102% and 95.5%; (compound 0.316 µM) 101% and 85.6%; (compound 1 µM) 91.7% and 74%; (compound 3.16 µM) 70.5% and 30.9%. Also, the IC50 (curve of compound) is 6.6 µM and 1.88 µM.

`Nc1ccn(C2OC(CO)C(O)C2(F)F)c(=O)n1` (stereo not given) + NC1CC1c1ccc(-c2cccc(O)c2)cc1: the IC50 was < 0.000949 µM under setting [1]; < 0.000949 µM under setting [2]; < 0.000949 µM under setting [3]; < 0.000949 µM under setting [4]; < 0.000949 µM under setting [5]. Also, the viability, T/C (second compound 0.1 µM, first compound 0.000949 µM) was 33.8%; the viability, T/C (second compound 0.1 µM, first compound 0.003 µM) is 14.3%; the viability, T/C under setting [6] is 4.63%; the viability, T/C under setting [7] was 3.79%; the viability, T/C under setting [8] is 3.9%; the viability, T/C under setting [9] was 3.38%. Moreover, the viability, T/C runs as follows: (second compound 0.316 µM, first compound 0.000949 µM) 34.3%; (second compound 0.316 µM, first compound 0.003 µM) 14.2%; under setting [10], 4.2%; under setting [11], 3.68%; under setting [12], 3.51%; under setting [13], 3.68%. The viability, T/C is 32.4% (second compound 1 µM, first compound 0.000949 µM); 12.8% (second compound 1 µM, first compound 0.003 µM); 4.05% under setting [14]; 3.61% under setting [15]; 3.27% under setting [16]; 3.33% under setting [17]. For the same compound, the viability, T/C (second compound 3.16 µM, first compound 0.000949 µM) is 28.3%; the viability, T/C (second compound 3.16 µM, first compound 0.003 µM) is 11.9%; the viability, T/C under setting [18] is 4.05%; the viability, T/C under setting [19] is 3.61%; the viability, T/C under setting [20] is 3.53%; the viability, T/C under setting [21] was 3.69%. Also, the viability, T/C was 24.4% (second compound 10 µM, first compound 0.000949 µM); 12.5% (second compound 10 µM, first compound 0.003 µM); 4.33% under setting [22]; 3.84% under setting [23]; 3.5% under setting [24]; 3.65% under setting [25].
